According to patent US20100323021A1, “ANTITUMORAL TREATMENTS” (PHARMA MAR, S.A., priority 2008, published 2010):

Assays:
[1] = tested on: mouse leukemia (P388); settings: cited from earlier work
[2] = tested on: non-small cell lung (A549); settings: cited from earlier work
[3] = tested on: colon (HT-29); settings: cited from earlier work
[4] = tested on: human tumor cell types such as breast, prostate, and melanoma; settings: xenografted murine models; cited from earlier work
[5] = tested on: human cervical epithelium HeLa tumor cells; assay: Antiproliferation assay (WST-1 cell viability); assay type: cell-based; settings: 24 h incubation, conjugates added at a peptide concentration of 1×10^−5 M
Description: The degree of cytotoxic activity of single peptides (P1 and P2), single gold nanoparticle solutions (AuNP-20 and AuNP-40) and their respective conjugates was determined by cell viability testing using the WST-1 assay in human cervical epithelium HeLa tumor cells, following 24 h of incubation. Each assay was run in sextuplicate, and the whole experiment was run in triplicate.
HeLa cell line (ATTC no CCL-2) was maintained in Dulbecco Modified Eagle's Minimal Essential Medium (DMEM) low glucose medium (Biological Industries) containing 10% foetal calf serum (FCS), 2 mM glutamine, 50 U/mL penicillin, and […] streptomycin at 37° C. in a controlled 5% CO2 atmosphere.
For cell viability experiments, exponentially growing HeLa cells were detached from the culture flasks using a trypsin-0.25% ethylenediaminetetraacetic acid (EDTA) solution and the cell suspension was seeded at a concentration of 3.5×10^3 cells/cm^2 onto glass coverslips (Nalge Nunc International, Rochester, N.Y.). WST 1 assays were carried out 24 h later, when the confluence was approximately 70-80%. Non-adherent cells were washed away and attached cells were incubated at 37° C. in 5% CO2 in DMEM with a known concentration of gold nanoparticles.
For each assay, 3.5×10^3 cells/cm^2 were seeded onto a 96-well plate (Nalge Nunc) and cultured for 24 h. […]

Structure (SMILES): C/C=C1\NC(=O)[C@H](Cc2ccccc2)NC(=O)[C@@H](C(C)C)NC(=O)[C@@H]([C@@H](C)CC)NC(=O)[C@H](NC(=O)[C@H](NC(=O)[C@H](CCCN)NC(=O)[C@H]2CCCN2C(=O)[C@H](NC(=O)[C@@H](NC(=O)[C@@H](NC(=O)[C@H](NC(=O)CCCC(C)C)C(C)C)[C@@H](C)O)C(C)C)C(C)C)[C@@H](C)CC)[C@@H](C)OC(=O)[C@H](C(C)C)NC1=O [Kahalalide F]
- in vitro activity [1]: micromolar activity
- in vitro activity [2]: micromolar activity
- in vitro activity [3]: micromolar activity

Structure (SMILES): C/C=C1\NC(=O)[C@H](Cc2ccccc2)NC(=O)[C@@H](C(C)C)NC(=O)[C@@H]([C@@H](C)CC)NC(=O)[C@H](NC(=O)[C@H](NC(=O)[C@H](CCCN)NC(=O)[C@H]2CCCN2C(=O)[C@H](NC(=O)[C@@H](NC(=O)[C@@H](NC(=O)[C@H](NC(=O)CC[C@@H](C)CC)C(C)C)[C@@H](C)O)C(C)C)C(C)C)[C@@H](C)CC)[C@@H](C)OC(=O)[C@H](C(C)C)NC1=O [PMO2734]
- in vivo activity [4]: significant in vivo activity

Structure (SMILES): C/C=C1\NC(=O)[C@H](Cc2ccccc2)NC(=O)[C@@H](C(C)C)NC(=O)[C@@H]([C@@H](C)CC)NC(=O)[C@H](NC(=O)[C@H](NC(=O)[C@H](CCCN)NC(=O)[C@H]2CCCN2C(=O)[C@H](NC(=O)[C@@H](NC(=O)[C@@H](NC(=O)[C@@H](CS)NC(=O)CCCC(C)C)[C@@H](C)O)C(C)C)C(C)C)[C@@H](C)CC)[C@@H](C)OC(=O)[C@H](C(C)C)NC1=O [P1]
- inhibition (cytotoxicity against HeLa cells) [5]: 50%

Structure (SMILES): C/C=C1\NC(=O)[C@H](Cc2ccccc2)NC(=O)[C@@H](C(C)C)NC(=O)[C@@H]([C@@H](C)CC)NC(=O)[C@H](NC(=O)[C@H](NC(=O)[C@H](CCCN)NC(=O)[C@H]2CCCN2C(=O)[C@H](NC(=O)[C@@H](NC(=O)[C@@H](NC(=O)[C@H](CS)NC(=O)CCCC(C)C)[C@@H](C)O)C(C)C)C(C)C)[C@@H](C)CC)[C@@H](C)OC(=O)[C@H](C(C)C)NC1=O [P2]
- inhibition (cytotoxicity against HeLa cells) [5]: 10%
